In US20250367166A1, “NEXT GENERATION DIPROVOCIMS THAT ACTIVATE THE INNATE AND ADAPTIVE IMMUNE RESPONSE” (The Scripps Research Institute, priority 2022, published 2025):
Where two headings read alike, the source gives them in different places.

Key:
[1] = biological target: TLR1/TLR2 (Homo sapiens, UniProt O60603+Q15399); assay: TNF-α release from PMA-differentiated human THP-1 cells (ELISA); conditions: for Emax: THP-1, 4 h, read-out: Efficacy (magnitude) of response versus diprovocim-1 (100%), THP-1; for EC50: read-out: EC50 (nM) (THP-1): EC50 TNF-α release from human THP-1 cells;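 for all read-outs here: cells exposed to graded compound concentrations for 4 h, TNF-α quantified in supernatant, LPS as positive and DMSO as negative control, values are duplicate means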
TLR1/TLR2 (Homo sapiens, UniProt O60603+Q15399), sequence (Q15399 25-786): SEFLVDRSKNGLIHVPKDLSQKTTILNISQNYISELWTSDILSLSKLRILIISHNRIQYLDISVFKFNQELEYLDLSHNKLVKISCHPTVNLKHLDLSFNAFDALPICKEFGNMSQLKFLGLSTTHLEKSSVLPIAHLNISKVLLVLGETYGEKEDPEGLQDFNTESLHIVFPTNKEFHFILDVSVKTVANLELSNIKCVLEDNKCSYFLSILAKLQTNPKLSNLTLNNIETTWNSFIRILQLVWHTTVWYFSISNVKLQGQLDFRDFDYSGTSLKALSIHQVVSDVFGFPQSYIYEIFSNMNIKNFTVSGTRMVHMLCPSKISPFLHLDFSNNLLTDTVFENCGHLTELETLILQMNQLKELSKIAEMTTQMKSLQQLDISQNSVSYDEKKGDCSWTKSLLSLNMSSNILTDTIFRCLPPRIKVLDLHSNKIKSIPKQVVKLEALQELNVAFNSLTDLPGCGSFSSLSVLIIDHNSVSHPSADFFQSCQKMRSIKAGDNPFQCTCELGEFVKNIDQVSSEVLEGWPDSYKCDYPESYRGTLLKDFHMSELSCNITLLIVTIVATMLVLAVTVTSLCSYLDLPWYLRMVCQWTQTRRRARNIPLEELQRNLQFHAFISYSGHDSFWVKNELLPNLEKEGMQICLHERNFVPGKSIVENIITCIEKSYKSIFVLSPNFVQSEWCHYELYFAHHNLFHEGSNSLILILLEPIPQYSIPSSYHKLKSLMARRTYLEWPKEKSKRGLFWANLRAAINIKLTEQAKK
TLR1/TLR2 (Homo sapiens, UniProt O60603+Q15399), sequence (O60603 21-784): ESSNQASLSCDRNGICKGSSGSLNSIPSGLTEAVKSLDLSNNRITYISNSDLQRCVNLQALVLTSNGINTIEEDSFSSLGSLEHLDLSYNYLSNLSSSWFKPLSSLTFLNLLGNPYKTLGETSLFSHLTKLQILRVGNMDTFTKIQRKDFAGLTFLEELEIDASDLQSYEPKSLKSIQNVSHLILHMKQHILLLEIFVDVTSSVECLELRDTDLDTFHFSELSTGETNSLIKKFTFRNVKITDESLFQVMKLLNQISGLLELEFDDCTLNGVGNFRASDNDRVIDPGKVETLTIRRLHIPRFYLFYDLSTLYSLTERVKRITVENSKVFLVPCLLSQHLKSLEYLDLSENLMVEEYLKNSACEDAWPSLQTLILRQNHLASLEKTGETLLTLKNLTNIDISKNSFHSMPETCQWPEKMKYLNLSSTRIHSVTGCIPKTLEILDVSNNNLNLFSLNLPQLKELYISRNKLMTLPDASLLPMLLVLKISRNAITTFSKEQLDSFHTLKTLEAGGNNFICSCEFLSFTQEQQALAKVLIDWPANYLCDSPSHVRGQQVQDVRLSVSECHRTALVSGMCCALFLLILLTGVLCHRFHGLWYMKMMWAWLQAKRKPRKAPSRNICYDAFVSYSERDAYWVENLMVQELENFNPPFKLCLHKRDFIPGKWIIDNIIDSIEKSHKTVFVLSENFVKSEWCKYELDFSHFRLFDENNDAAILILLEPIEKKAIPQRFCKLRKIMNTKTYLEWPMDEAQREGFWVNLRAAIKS
Method: THP-1 (American Type Culture Collection) cells, a human monocytic leukemia cell line, were differentiated by treatment with 100 nM PMA (Sigma) in Roswell Park Memorial Institute (RPMI) cell culture medium [RPMI containing 10% vol/vol FBS (Gemini Bio Products), 1% penicillin and streptomycin (Life Technologies)] for 24 h. After that, the cells were washed with PBS and cultured in fresh RPMI cell culture medium for 24 h before use in studies. PMA-differentiated THP-1 cells were seeded onto 96-well plates at 0.5×10^5 cells per well and treated with systematically varied concentrations of the candidate compounds (dissolved in DMSO, and the final assay DMSO concentration (0.1%) was kept constant in all experiments) for 4 h. Ultra-pure LPS (dissolved in H2O, Enzo Life Sciences) was assessed alongside the compounds as a positive control and DMSO treated control was used as a negative control. Human TNF-α in the supernatants was measured by ELISA (eBioscience). This assay was used for establishing dose-response curves and measured EC50's. EC50's were calculated by Graphpad Prism. All data is the mean of duplicates and SD is within +10% of mean.

[2] = biological target: TLR1/TLR2 (Mus musculus, UniProt Q9EPQ1+Q9QUN7); assay: TNF-α release from thioglycolate-elicited mouse peritoneal macrophages (ELISA); conditions: for Emax: 4 h, read-out: Efficacy (magnitude) of response versus diprovocim-1 (100%), mouse macrophages; for EC50: read-out: EC50 (nM) (mouse): EC50 TNF-α release from mouse macrophages
TLR1/TLR2 (Mus musculus, UniProt Q9EPQ1+Q9QUN7), sequence (Q9EPQ1 26-795): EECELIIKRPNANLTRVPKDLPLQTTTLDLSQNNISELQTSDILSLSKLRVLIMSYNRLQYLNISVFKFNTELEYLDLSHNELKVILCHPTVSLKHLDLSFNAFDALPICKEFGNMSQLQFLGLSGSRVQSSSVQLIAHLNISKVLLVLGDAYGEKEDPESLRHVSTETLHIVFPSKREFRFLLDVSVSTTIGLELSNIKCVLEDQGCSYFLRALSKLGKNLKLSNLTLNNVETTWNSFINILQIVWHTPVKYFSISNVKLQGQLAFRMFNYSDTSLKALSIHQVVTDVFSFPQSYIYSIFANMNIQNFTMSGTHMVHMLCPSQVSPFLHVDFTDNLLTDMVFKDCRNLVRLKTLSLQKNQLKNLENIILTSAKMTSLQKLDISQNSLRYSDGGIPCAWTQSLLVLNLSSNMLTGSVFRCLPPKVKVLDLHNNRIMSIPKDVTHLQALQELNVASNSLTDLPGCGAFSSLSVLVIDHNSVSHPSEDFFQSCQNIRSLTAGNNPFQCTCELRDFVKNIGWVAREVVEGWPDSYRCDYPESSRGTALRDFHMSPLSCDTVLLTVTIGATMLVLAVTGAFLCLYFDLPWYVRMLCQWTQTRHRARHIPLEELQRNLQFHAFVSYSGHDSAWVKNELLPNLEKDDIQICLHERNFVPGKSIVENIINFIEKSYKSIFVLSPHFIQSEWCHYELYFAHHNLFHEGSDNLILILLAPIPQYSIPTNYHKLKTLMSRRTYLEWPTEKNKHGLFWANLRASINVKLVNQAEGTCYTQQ
TLR1/TLR2 (Mus musculus, UniProt Q9EPQ1+Q9QUN7), sequence (Q9QUN7 25-784): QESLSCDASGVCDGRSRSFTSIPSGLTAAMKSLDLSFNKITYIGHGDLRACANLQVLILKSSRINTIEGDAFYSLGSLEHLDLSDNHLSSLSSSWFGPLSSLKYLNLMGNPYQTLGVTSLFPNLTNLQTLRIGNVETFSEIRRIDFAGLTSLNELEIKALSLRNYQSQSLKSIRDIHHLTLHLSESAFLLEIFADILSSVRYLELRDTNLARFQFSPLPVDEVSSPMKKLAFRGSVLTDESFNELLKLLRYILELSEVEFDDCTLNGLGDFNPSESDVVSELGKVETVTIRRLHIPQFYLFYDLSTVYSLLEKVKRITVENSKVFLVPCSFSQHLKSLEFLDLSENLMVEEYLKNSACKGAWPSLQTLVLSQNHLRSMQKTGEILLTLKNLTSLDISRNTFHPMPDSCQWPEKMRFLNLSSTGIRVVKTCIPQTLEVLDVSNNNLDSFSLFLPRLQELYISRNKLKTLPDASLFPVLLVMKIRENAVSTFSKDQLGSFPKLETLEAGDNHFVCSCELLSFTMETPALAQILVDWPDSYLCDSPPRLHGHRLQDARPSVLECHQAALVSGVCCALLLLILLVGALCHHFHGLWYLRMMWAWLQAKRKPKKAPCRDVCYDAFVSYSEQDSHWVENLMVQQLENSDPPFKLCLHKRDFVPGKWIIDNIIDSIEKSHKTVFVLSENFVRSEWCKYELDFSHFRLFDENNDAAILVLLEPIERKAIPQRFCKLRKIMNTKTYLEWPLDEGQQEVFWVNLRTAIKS

Emax [1] | EC50 ([1]; Table 3) | Emax [2] | EC50 ([2]; Table 3) | EC50 ([1]; Table 6) | EC50 ([2]; Table 6) | EC50 ([1]; Table 1) | EC50 ([2]; Table 1) | Structure (SMILES)
100% | 56 nM | 170% | 375 nM | – | – | – | – | O=C(CNC(=O)OCC1c2ccccc2-c2ccccc21)OCCCCCCCCCCCCNC(=O)[C@@H]1CN(C(=O)c2ccc(C(=O)N3C[C@@H](C(=O)N[C@H]4C[C@@H]4c4ccccc4)[C@H](C(=O)N[C@H]4C[C@@H]4c4ccccc4)C3)cc2)C[C@H]1C(=O)N[C@H]1C[C@@H]1c1ccccc1 [Compound 38, 12-((3S,4S)-1-(4-((3S,4S)-3,4-Bis(((1S,2R)-2-phenyl-cyclopropyl)carbamoyl)pyrrolidine-1-carbonyl)benzoyl)-4-(((1S,2R)-2-phenylcyclopropyl)carbamoyl)pyrrolidine-3-carboxamido)-dodecyl 2-((((9H-fluoren-9-yl)methoxy)carbonyl)amino)acetate]
100% | 0.38 nM | 120% | 6 nM | – | – | – | – | COC(=O)NCC(=O)OCCCCCCCCCCCCNC(=O)[C@@H]1CN(C(=O)c2ccc(C(=O)N3C[C@@H](C(=O)N[C@H]4C[C@@H]4c4ccccc4)[C@H](C(=O)N[C@H]4C[C@@H]4c4ccccc4)C3)cc2)C[C@H]1C(=O)N[C@H]1C[C@@H]1c1ccccc1 [Compound 39, 12-((3S,4S)-1-(4-((3S,4S)-3,4-Bis(((1S,2R)-2-phenylcyclopropyl)carbamoyl)pyrrolidine-1-carbonyl)benzoyl)-4-(((1S,2R)-2-phenylcyclopropyl)-carbamoyl)pyrrolidine-3-carboxamido)-dodecyl 2-((methoxycarbonyl)amino)acetate]
100% | – | 50% | – | 2.9 nM | 49 nM | – | – | O=C(O)c1ccc(C(=O)NCCOCCCCCCCCCCCCNC(=O)[C@@H]2CN(C(=O)c3ccc(C(=O)N4C[C@@H](C(=O)N[C@H]5C[C@@H]5c5ccccc5)[C@H](C(=O)N[C@H]5C[C@@H]5c5ccccc5)C4)cc3)C[C@H]2C(=O)N[C@H]2C[C@@H]2c2ccccc2)cc1 [Compound 86, 4-((2-((12-((3S,4S)-1-(4-((3S,4S)-3,4-Bis(((1S,2R)-2-phenylcyclopropyl)carbamoyl)pyrrolidine-1-carbonyl)benzoyl)-4-(((1S,2R)-2-phenylcyclopropyl)-carbamoyl)pyrrolidine-3-carboxamido)dodecyl)-oxy)ethyl)carbamoyl)benzoic acid]
90% | – | 110% | – | – | – | – | – | O=C(NCCCCCCCCCCO)[C@@H]1CN(C(=O)c2ccc(C(=O)N3C[C@@H](C(=O)N[C@H]4C[C@@H]4c4ccccc4)[C@H](C(=O)N[C@H]4C[C@@H]4c4ccccc4)C3)cc2)C[C@H]1C(=O)N[C@H]1C[C@@H]1c1ccccc1 [Compound 8, (3S,4S)-1-(4-((3S,4S)-3,4-Bis(((1S,2R)-2-phenyl-cyclopropyl)carbamoyl)pyrrolidine-1-carbonyl)benzoyl)-N^3-(10-hydroxydecyl)-N^4-((1S,2R)-2-phenylcyclopropyl)-pyrrolidine-3,4-dicarboxamide]
90% | – | 90% | – | – | – | 0.33 nM | 170 nM | CC(C)(C)OC(=O)NCC(=O)NCCCCCCCCCCCCNC(=O)[C@@H]1CN(C(=O)c2ccc(C(=O)N3C[C@@H](C(=O)N[C@H]4C[C@@H]4c4ccccc4)[C@H](C(=O)N[C@H]4C[C@@H]4c4ccccc4)C3)cc2)C[C@H]1C(=O)N[C@H]1C[C@@H]1c1ccccc1 [Compound 18, tert-Butyl (2-((12-((3S,4S)-1-(4-((3S,4S)-3,4-bis-(((1S,2R)-2-phenylcyclopropyl)carbamoyl)pyrrolidine-1-carbonyl)-benzoyl)-4-(((1S,2R)-2-phenyl-cyclopropyl)-carbamoyl)pyrrolidine-3-carboxamido)-dodecyl)amino)-2-oxoethyl)carbamate]
140% | – | 130% | – | – | – | 0.8 nM | 10 nM | NCCCCCCCCCCCCNC(=O)[C@@H]1CN(C(=O)c2ccc(C(=O)N3C[C@@H](C(=O)N[C@H]4C[C@@H]4c4ccccc4)[C@H](C(=O)N[C@H]4C[C@@H]4c4ccccc4)C3)cc2)C[C@H]1C(=O)N[C@H]1C[C@@H]1c1ccccc1 [Compound 16, (3S,4S)—N^3-(12-Aminododecyl)-1-(4-((3S,4S)-3,4-bis-(((1S,2R)-2-phenylcyclopropyl)carbamoyl)-pyrrolidine-1-carbonyl)benzoyl)-N^4-((1S,2R)-2-phenylcyclopropyl)-pyrrolidine-3,4-dicarboxamide]

Second part, the compound before the results:

Structure (SMILES) | Emax [1] | EC50 ([1]; Table 3) | Emax [2] | EC50 ([2]; Table 3) | EC50 ([1]; Table 6) | EC50 ([2]; Table 6) | EC50 ([1]; Table 1) | EC50 ([2]; Table 1)
O=C(NCCCCCCCCCCCCO)[C@@H]1CN(C(=O)c2ccc(C(=O)N3C[C@@H](C(=O)N[C@H]4C[C@@H]4c4ccccc4)[C@H](C(=O)N[C@H]4C[C@@H]4c4ccccc4)C3)cc2)C[C@H]1C(=O)N[C@H]1C[C@@H]1c1ccccc1 [Compound 7, (3S,4S)-1-(4-((3S,4S)-3,4-Bis(((1S,2R)-2-phenyl-cyclopropyl)carbamoyl)pyrrolidine-1-carbonyl)-benzoyl)-N^3-(12-hydroxydodecyl)-N^4-((1S,2R)-2-phenyl-cyclo-propyl)pyrrolidine-3,4-dicarboxamide] | 90% | 0.21 nM | 110% | 1.2 nM | – | – | – | –
CC(C)(C)OC(=O)c1ccc(C(=O)NCCOCCCCCCCCCCCCNC(=O)[C@@H]2CN(C(=O)c3ccc(C(=O)N4C[C@@H](C(=O)N[C@H]5C[C@@H]5c5ccccc5)[C@H](C(=O)N[C@H]5C[C@@H]5c5ccccc5)C4)cc3)C[C@H]2C(=O)N[C@H]2C[C@@H]2c2ccccc2)cc1 [Compound 85, tert-Butyl 4-((2-((12-((3S,4S)-1-(4-((3S,4S)-3,4-bis-(((1S,2R)-2-phenylcyclopropyl)carbamoyl)-pyrrolidine-1-carbonyl)benzoyl)-4-(((1S,2R)-2-phenylcyclopropyl)-carbamoyl)pyrrolidine-3-carboxamido)dodecyl)-oxy)ethyl)carbamoyl)benzoate] | 110% | – | 160% | – | 13.4 nM | 36 nM | – | –
O=C(O)c1ccc(C(=O)OCCCCCCCCCCCCNC(=O)[C@@H]2CN(C(=O)c3ccc(C(=O)N4C[C@@H](C(=O)N[C@H]5C[C@@H]5c5ccccc5)[C@H](C(=O)N[C@H]5C[C@@H]5c5ccccc5)C4)cc3)C[C@H]2C(=O)N[C@H]2C[C@@H]2c2ccccc2)cc1 [Compound 78, 4-(((12-((3S,4S)-1-(4-((3S,4S)-3,4-Bis(((1S,2R)-2-phenylcyclopropyl)carbamoyl)pyrrolidine-1-carbonyl)benzoyl)-4-(((1S,2R)-2-phenylcyclopropyl)-carbamoyl)pyrrolidine-3-carboxamido)-dodecyl)oxy)carbonyl)benzoic acid] | 100% | – | 120% | – | 0.69 nM | 2.1 nM | – | –
CC(=O)OCCCCCCCCCCCCNC(=O)[C@@H]1CN(C(=O)c2ccc(C(=O)N3C[C@@H](C(=O)N[C@H]4C[C@@H]4c4ccccc4)[C@H](C(=O)N[C@H]4C[C@@H]4c4ccccc4)C3)cc2)C[C@H]1C(=O)N[C@H]1C[C@@H]1c1ccccc1 [Compound 32, 12-((3S,4S)-1-(4-((3S,4S)-3,4-Bis(((1S,2R)-2-phenyl-cyclopropyl)carbamoyl)pyrrolidine-1-carbonyl)benzoyl)-4-(((1S,2R)-2-phenylcyclopropyl)carbamoyl)pyrrolidine-3-carboxamido)dodecyl acetate] | 130% | 0.14 nM | 140% | 1.5 nM | – | – | – | –
